# Results from publication PMC8658016, “Identification of New Compounds with Anticonvulsant and Antinociceptive Properties in a Group of 3-substituted (2,5-dioxo-pyrrolidin-1-yl)(phenyl)-Acetamides” (International Journal of Molecular Sciences, 2021).
# Experiments:
# mice [1] = assay: 6 Hz (44 mA) seizure test, model of drug-resistant epilepsy; assay type: in vivo; details: Mus musculus, ip; mice i.p.; 95% confidence interval in parentheses
# mice [2] = assay: Oxaliplatin-induced peripheral neuropathy, tactile allodynia (von Frey); assay type: in vivo, mouse; details: for pain sensitivity threshold (von Frey), early phase / pain threshold as % of the baseline value, early phase: 3 h after oxaliplatin; for pain threshold (von Frey), late phase / pain threshold as % of the baseline value, late phase: 7 days after oxaliplatin
# Text: To investigate the analgesic activity of compound 14 in neuropathic pain, we used the OXPT-induced peripheral neuropathy model. OXPT directly affects neurons, which results in the upregulation of TRPM8 and TRPA1 and the downregulation of Kv4.3 neuronal channels. Moreover, OXPT forms adduct with mitochondrial DNA and, in this way, change the expression of membrane-associated protein such as channels. All these effects finally lead to peripheral and central sensitization. The neuropathy manifests as the decrease in the pain threshold and can be observed in hours or in days after OXPT administration, which is called the early or late phase of neuropathic pain, respectively. We tested the influence of compound 14 on tactile allodynia using the von Frey method 3 h and 7 days after the induction of neuropathy. In the early phase, we observed a significant decrease in the value of mean force that caused a paw withdrawal reaction (1.84 ± 0.05 g) (60.9% of the baseline) compared to non-treated animals (3.02 ± 0.07 g) (the baseline). In the late phase, the pain threshold was 1.97 ± 0.07 (65.2% of the baseline). The observed tactile allodynia was attenuated by compound 14, which elevated the pain sensitivity threshold in the early phase in a dose-dependent manner. (Figure 7) (2.61 ± 0.08 g, 2.94 ± 0.04 g, and 3.05 ± 0.08 g at the dose of 40 mg/kg, 60 mg/kg, and 80 mg/kg, respectively, which corresponded to 86.4%, 97.3%, and 100.9% of the baseline value). In the late phase, the pain threshold values were 2.45 ± 0.06 g, 2.88 ± 0.04 g, and 2.98 ± 0.06 g, which corresponded to 81.1%, 95.3%, and 98.6% of the baseline value.
# The experiments were conducted on adult male Albino Swiss mice (CD-1, 18–25 g) and male Wistar rats (Krf:(WI) WU), 180–250 g) as described previously. The minimum number of animals used needed to obtain definite and normally distributed results with the utilized test. Behavioral measures were scored by trained observers, which were blind to experimental conditions. The following devices were used in the experiments: Analgesy Meter (37215, Ugo Basile), Plantar Test Apparatus (EFV5, Commat Ltd., Turkey), Plethysmometer (Plethysmometer 7140, Ugo Basile), Electronic von Frey unit (BIOSEB, France). All procedures were performed according to the European Union Directive of 22 September 2010 (2010/63/EU) and approved by the Local Ethics Committee for Experiments on Animals in Krakow, Poland (resolution no. 105/2016).
# Figure 7 Antiallodynic effects of compound 14 in the tactile allodynia evaluated in the von Frey test in oxaliplatin-induced peripheral neuropathy. Statistical analysis: repeated measures analysis of variance (ANOVA), followed by Dunnett’s post hoc comparison: *** p < 0.001, **** p < 0.0001 (GraphPad Prism 8.0.1). Results obtained before the treatment with oxaliplatin (the gray bar) and after the treatment with oxaliplatin and the compound (post compound 14, the red bars) were compared to the results obtained after the treatment with oxaliplatin and before the administration of the compound (pre compound 14; the white bars).
# in vivo = details: male, CD-1, mouse, ip
# [3] = test system: fast voltage-gated sodium currents in rat prefrontal cortex pyramidal neurons; assay: Patch-clamp, fast voltage-gated sodium currents; assay type: cell-based
# Text: Consequently, we determined the influence of compound 14 on the fast activating and fast inactivating voltage-gated sodium currents in rat prefrontal cortex pyramidal neurons using the patch-clamp technique. Maximal currents were evoked by rectangular voltage steps to 0 mV from a physiological holding potential of -65 mV. After recording a stable control, compound 14 was applied to the whole bath for three minutes. […] Therefore, it was very likely that the potent inhibition of sodium currents by compound 14 similar to compound II was one of the mechanisms providing a similar level of anticonvulsant activity. Moreover, the influence of several additional concentrations of compound 14 on voltage-gated sodium currents were tested to confirm the dose–response relationship. In sum, the following concentrations were applied; 0.01 µM, 0.1 µM, 1 µM, 10 µM, and the results obtained were as follows: 0.95 ± 0.05 (p > 0.05, n = 5), 0.84 ± 0.03 (p < 0.05, n = 5), 0.82 ± 0.05 (p < 0.01, n = 5), and 0.77 ± 0.02 (p < 0.01, n = 5), respectively (Figure 9D, currents were normalized to control currents). It is worthy of note that the significant inhibitory effect was observed starting from the concentration of 0.1 µM, whereas no activity was detected at 0.01 µM. Furthermore, a clear dose–response relationship was visible. All the aforementioned results certainly supporting the inhibition of fast voltage-gated sodium currents, seemed to be crucial for the antiseizure activity of compound 14. The methodology of slice preparation, slice preincubation, and patch-clamp technique was the same as in our previous study. In this study, however, we used different recording solutions. The composition of pipette solution was (in mM) CsF (110), NaCl (7), EGTA (3), HEPES-Cl (10), MgCl2 (2), and Na2ATP (4) at pH 7,4. The composition of extracellular solution was (in mM) NaCl (30), choline chloride (90), TEA-Cl (30), CaCl2 (2), MgCl2 (2), glucose (15), HEPES (10), LaCl3 (0.001), and CdCl2 (0.4) at pH 7.4. Compound 14 was tested at concentration of 1 µM.  Figure 9 The influence of compound 14 on fast, voltage-gated sodium current. (A) The influence of tested compound on sodium current is shown on an example neuron. Current traces were evoked once every ten seconds by a rectangular voltage step. […] (B) Example sodium current recordings in control (black trace), after application of compound 14 (1 µM) (blue trace) and after wash-out (red trace). (C) Averaged normalized maximal current amplitudes in control, in the presence of compound 14 (1 µM) and after wash-out. (D) Averaged normalized maximal current amplitudes in control and in the presence of different concentrations of compound 14 (0.01 µM, 0.1 µM, 1 µM, and 10 µM). Statistical significance was analyzed by Graph Pad Prism 8.0.1 software using Tukey post hoc test (C) and Students’ t-test (D). Statistical significance-compared control: * p < 0.05, ** p < 0.01.
# hepatoma HepG2 cells = assay: Hepatotoxicity, HepG2 viability (MTS); assay type: cell-based; details: 72 h; viability affected at 100 µM only
smiles,measurement,setting,value
"CN(C)C1CC(=O)N(C(C(=O)N2CCN(c3cccc(C(F)(F)F)c3)CC2)c2ccccc2)C1=O.Cl (centres unmarked) [Compound 14, 3-(Dimethylamino)-1-(2-oxo-1-phenyl-2-(4-(3-(trifluoromethyl)phenyl)-piperazin-1-yl)ethyl)pyrrolidine-2,5-dione hydrochloride]",ED50,mice [1],63.2 mg/kg
same,"pain sensitivity threshold (von Frey), early phase",mice [2]; 40 mg/kg,2.61 ± 0.08 g
same,"pain threshold as % of the baseline value, early phase",mice [2]; 40 mg/kg,86.4%
same,"pain threshold (von Frey), late phase",mice [2]; 40 mg/kg,2.45 ± 0.06 g
same,"pain threshold as % of the baseline value, late phase",mice [2]; 40 mg/kg,81.1%
same,"pain sensitivity threshold (von Frey), early phase",mice [2]; 60 mg/kg,2.94 ± 0.04 g
same,"pain threshold as % of the baseline value, early phase",mice [2]; 60 mg/kg,97.3%
same,"pain threshold (von Frey), late phase",mice [2]; 60 mg/kg,2.88 ± 0.04 g
same,"pain threshold as % of the baseline value, late phase",mice [2]; 60 mg/kg,95.3%
same,"pain sensitivity threshold (von Frey), early phase",mice [2]; 80 mg/kg,3.05 ± 0.08 g
same,"pain threshold as % of the baseline value, early phase",mice [2]; 80 mg/kg,100.9%
same,"pain threshold (von Frey), late phase",mice [2]; 80 mg/kg,2.98 ± 0.06 g
same,"pain threshold as % of the baseline value, late phase",mice [2]; 80 mg/kg,98.6%
same,TD50,in vivo,169 mg/kg
same,maximal sodium current amplitude normalized to control (1.0),"[3]; 0.01 µM, p > 0.05, n = 5",0.95 ± 0.05
same,maximal sodium current amplitude normalized to control (1.0),"[3]; 0.1 µM, p < 0.05, n = 5",0.84 ± 0.03
same,maximal sodium current amplitude normalized to control (1.0),"[3]; 1 µM, p < 0.01, n = 5",0.82 ± 0.05
same,maximal sodium current amplitude normalized to control (1.0),"[3]; 10 µM, p < 0.01, n = 5",0.77 ± 0.02
same,"maximal sodium current amplitude normalized to control, after drug wash-out",[3]; after application of 1 µM,0.92 ± 0.02
same,hepatotoxicity (HepG2 viability),hepatoma HepG2 cells,generally non-toxic
